Reference: patent publication US11506670B2, “Method of genome-wide direct identification of electrophile-sensing targets” (Cornell University, priority 2018, dated 2022)

What was measured:
[1] = system: γ-H2AX; test: γ-H2AX immunofluorescence in HEK293T cells; format: cell-based, human
Experimental: Cells were grown to 70% confluence in 35 mm glass-bottomed dishes and transfected with HaloTagged plasmids. T-REX™ delivery was performed as mentioned above. […] The fixative was aspirated and the cells washed three times with 1×DPBS with 5-min incubation at room temperature. Blocking and permeabilization was performed in one-step by incubation at 37° C. for 1 h in 1×DPBS containing 3% BSA and 0.2% Triton X-100. Cells were subsequently incubated with primary antibody (1:300, Table 4) in incubation buffer (1% BSA, 0.02% Triton X-100 in 1×DPBS) for 2 h at room temperature. Cells were rinsed 3 times with 1×DPBS with 5 min incubation for each wash and subsequently incubated in dark for 1 h at room temperature with corresponding second antibody (1:1000, Table 4) in incubation buffer. Cells were rinsed 3 times with 1×DPBS with 5 min incubation for each rinse. DAPI (Sigma) was freshly prepared in 1×DPBS from 2 mg/mL wt./v stock solution in water and added to the wells at the final concentration of 0.2 μg/mL. The samples were incubated in dark for 1 min and washed once with 1×DPBS and stored at 4° C. in dark till images were taken using a Zeiss LSM 710 meta confocal fluorescence microscope. Image analysis was performed using Image-J (NIH).

[2] = target: T1, Ube2N (Homo sapiens, UniProt P61088); test: T-REX targeted delivery efficiency, in-gel fluorescence (Cy5 Click); format: cell-based; conditions: HEK293T, Halo-Ube2N
T1 construct: expressed in transfected cells; host or cells: HEK 293T
T1 sequence (P61088 1-152): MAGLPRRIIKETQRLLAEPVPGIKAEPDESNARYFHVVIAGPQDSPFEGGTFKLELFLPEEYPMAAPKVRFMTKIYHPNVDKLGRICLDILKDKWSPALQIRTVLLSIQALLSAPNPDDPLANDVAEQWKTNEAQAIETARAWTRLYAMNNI
Experimental: (§1) HEK 293T cells were maintained in 1×MEM+ Glutamax™ media supplemented with 10% FBS, 1×NEAA, 1× sodium pyruvate and 1× Pen-Strep. Cells were grown in a humidified, 5% CO2 incubator at 37° C. For in-gel fluorescence analysis and western blot, ˜0.7-0.8×10^6 HEK 293T cells were seeded in 8 cm^2 tissue culture dishes. 24 h later, cells were transfected using TransIT-2020 transfection reagent per the manufacturer's recommendation. Subsequent steps were performed under dim light. 24-36 h post transfection, monolayer of cells were treated with 25 μM Ht-PreHNE in serum-free media and incubated for 2.5 h. Cells were gently rinsed with serum-free media three times every 30 min over the next 1.5 h. Meanwhile, UV lamps were turned on 10 min prior to UV irradiation time. For samples designated for light exposure, lids were removed from the dishes and cells were placed under 365 nm UV light for 5-8 min. The cells were harvested, washed two times with ice-cold PBS and frozen in liquid nitrogen.
(§2) All steps were performed in dark or under dim light. Cells from 8 cm^2 plates were lysed in 30 μL buffer containing 50 mM HEPES (pH 7.6), 150 mM NaCl, 1% Nonidet P-40, 1× Roche cOmplete, mini, EDTA-free protease inhibitor cocktail, and 0.3 mM TCEP by rapid freeze-thaw (×3). […] Protein concentration of the clarified lysate was determined using Bradford assay. […]

[3] = target: T2, Ube2V1 (Homo sapiens, UniProt Q13404); test: as above; format: cell-based; conditions: HEK293T, Halo-Ube2V1
T2 construct: the gene of interest (GOI) was PCR-amplified out from the original plasmid; expressed in transfected cells; host or cells: HEK 293T
Experimental: as §1, §2

[4] = system: DNA synthesis in HEK293T cells; test: EdU/BrdU dual-pulse DNA-replication efficiency assay; format: cell-based, human; conditions: wt-Ube2V2 cells, post T-REX
Experimental: 4.8×10^5 cells were plated in glass-bottomed dishes (In Vitro Scientific) and allowed to grow for 24 h. Cells were transfected with the indicated plasmid and allowed to grow for another 24 h. Cells were then treated with 3 μM Ht-PreHNE no alkyne for 2.5 h followed by two rinses with serum-free medium. After this time, 20 μM EdU (final concentration) was added into cell culture media for 30 min before the 3rd rinse. The cells were rinsed another two times before light shining. 2.5 h post light irradiation, cells were treated with 50 μM BrdU for 30 min at 37° C. Then the cells were fixed with −20° C. pre-chilled MeOH for 20 min and then carried on to immunofluorescence assay as described elsewhere.
Whether DNA-synthesis stall (that occurs in response to many DNA damage events) accompanies C69-specific Ube2V2-HNEylation was investigated. A dual-pulse assay was used, which involves sequential, timed pulsing with two orthogonal DNA-labeling agents (EdU, followed by BrdU) that can be detected by fluorescence imaging (FIG. 13D). This assay is very accurate, because DNA-synthesis is measured over a defined time range, allowing a good estimate of synthesis-rate to be determined.

T2 sequence (Q13404 1-170 isoform Q13404-2): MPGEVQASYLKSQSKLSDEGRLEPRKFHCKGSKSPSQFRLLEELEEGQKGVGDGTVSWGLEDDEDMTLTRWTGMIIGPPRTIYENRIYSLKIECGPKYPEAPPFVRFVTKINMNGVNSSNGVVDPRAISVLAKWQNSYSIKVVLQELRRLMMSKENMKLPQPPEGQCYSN

CCCCCC(O)/C=C/C=O (stereo not drawn) [HNE, 4-hydroxynonenal]
γ-H2AX upregulation in Ube2V2-C69S-expressing cells ([1]; T-REX, over 18-h time course): no significant γ-H2AX upregulation | time post light exposure up to which increased γ-H2AX could be measured ([1]; basal after 24 h): up to 18 h | increase in cellular γ-H2AX following Ube2V2(C69)-targeted-HNEylation ([1]; wt-Halo-Ube2V2, T-REX): approximately two-fold | T-REX targeted delivery efficiency [2]: < 2% | T-REX targeted delivery efficiency [3]: 5±2% | DNA-synthesis stall [4]: the extent of DNA-synthesis stall was similar to that observed under mitomycin-C treatment
